Assay results from ChEMBL document CHEMBL1148881 (Bioorg Med Chem Lett, 2007).

Each molecule was assayed against T1, Peroxisome proliferator-activated receptor alpha (Homo sapiens, UniProt Q07869).
T1 sequence (Q07869 whole entry): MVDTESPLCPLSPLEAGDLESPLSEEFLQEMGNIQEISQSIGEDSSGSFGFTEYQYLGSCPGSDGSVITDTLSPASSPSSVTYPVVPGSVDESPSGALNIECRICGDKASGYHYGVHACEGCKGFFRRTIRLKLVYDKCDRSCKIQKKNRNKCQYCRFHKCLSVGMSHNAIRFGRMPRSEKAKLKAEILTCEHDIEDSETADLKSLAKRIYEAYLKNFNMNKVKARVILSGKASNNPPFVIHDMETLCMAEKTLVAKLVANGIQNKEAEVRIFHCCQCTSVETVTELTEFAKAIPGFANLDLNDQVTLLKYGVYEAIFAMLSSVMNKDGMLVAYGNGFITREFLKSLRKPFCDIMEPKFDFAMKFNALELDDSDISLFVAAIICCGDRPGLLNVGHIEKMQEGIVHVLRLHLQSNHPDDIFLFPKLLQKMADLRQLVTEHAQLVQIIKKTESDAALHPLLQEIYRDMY
Description: Displacement of [3H]2-(4-(2-(3-(2,4-difluorophenyl)-1-heptylureido)ethyl)phenoxy)-2-methylbutanoic acid from human PPARalpha after 30 mins by SPA assay

| SMILES | IC50 [nM] |
| --- | --- |
| COc1cc(OCC(=O)O)c(C)cc1SCc1ccc(OCc2ccc(C(F)(F)F)cc2)cc1 | 4.7 |
| O=C(O)COc1ccc(SCc2c(F)cccc2OCc2ccc(C(F)(F)F)cc2)c2c1CCC2 | > 10000 |
| Cc1cc(SCc2ccc(OCc3ccc(C(F)(F)F)cc3)cc2)c(Cl)cc1OCC(=O)O | 128 |
| O=C(O)COc1ccc(SCc2cc(F)ccc2OCc2ccc(C(F)(F)F)cc2)c2c1CCC2 | > 10000 |
| O=C(O)COc1ccc(SCc2ccc(OCc3ccc(F)cc3C(F)(F)F)cc2)c2c1CCC2 | 3480 |
| CC(C)(C)c1ccc(COc2ccc(CSc3ccc(OCC(=O)O)c4c3CCC4)cc2)cc1 | 1540 |
| O=C(O)COc1ccc(SCc2ccccc2OCc2ccc(C(F)(F)F)cc2)c2c1CCC2 | > 10000 |
| O=C(O)COc1ccc(SCc2ccc(OCc3ccc(F)cc3)cc2)c2c1CCC2 | > 10000 |
| O=C(O)COc1ccc(SCc2ccc(OCc3ccc(C(F)(F)F)cc3)cc2)c2c1CCCO2 | 791 |
| Cc1cc(SCc2ccc(OCc3ccc(C(F)(F)F)cc3)cc2)c2c(c1OCC(=O)O)CCC2 | 311 |

The remaining lines, values ahead:

| IC50 [nM] | SMILES |
| --- | --- |
| 578 | Cc1cc(SCc2ccc(OCc3ccc(C(F)(F)F)cc3)cc2)ccc1OCC(=O)O |
| 428 | Cc1cc(SCc2ccc(OCc3ccc(C(F)(F)F)cc3)cc2)c2c(c1OCC(=O)O)CCCO2 |
| 3910 | O=C(O)COc1ccc(SCc2ccc(OCc3ccc(Cl)cc3)cc2)c2c1CCC2 |
| 3670 | O=C(O)COc1ccc(SCc2cccc(F)c2OCc2ccc(C(F)(F)F)cc2)c2c1CCC2 |
| 4190 | O=C(O)COc1ccc(SCc2ccc(OCc3cc(Cl)ccc3Cl)cc2)c2c1CCC2 |
| 1200 | O=C(O)COc1ccc(SCc2ccc(OCc3ccc(C(F)(F)F)cc3)cc2)c2c1CCC2 |
| > 10000 | O=C(O)COc1ccc(SCc2ccc(OCc3ccccc3)cc2)c2c1CCC2 |
| 3110 | O=C(O)COc1ccc(SCc2ccc(F)cc2OCc2ccc(C(F)(F)F)cc2)c2c1CCC2 |
| 4950 | COc1ccc(COc2ccc(CSc3ccc(OCC(=O)O)c4c3CCC4)cc2)cc1 |
| 672 | O=C(O)COc1ccc(SCc2ccc(OCc3ccc(OC(F)(F)F)cc3)cc2)c2c1CCC2 |

What follows are molecules tested against T2, Peroxisome proliferator-activated receptor delta (Homo sapiens, UniProt Q03181).
T2 sequence (Q03181 whole entry): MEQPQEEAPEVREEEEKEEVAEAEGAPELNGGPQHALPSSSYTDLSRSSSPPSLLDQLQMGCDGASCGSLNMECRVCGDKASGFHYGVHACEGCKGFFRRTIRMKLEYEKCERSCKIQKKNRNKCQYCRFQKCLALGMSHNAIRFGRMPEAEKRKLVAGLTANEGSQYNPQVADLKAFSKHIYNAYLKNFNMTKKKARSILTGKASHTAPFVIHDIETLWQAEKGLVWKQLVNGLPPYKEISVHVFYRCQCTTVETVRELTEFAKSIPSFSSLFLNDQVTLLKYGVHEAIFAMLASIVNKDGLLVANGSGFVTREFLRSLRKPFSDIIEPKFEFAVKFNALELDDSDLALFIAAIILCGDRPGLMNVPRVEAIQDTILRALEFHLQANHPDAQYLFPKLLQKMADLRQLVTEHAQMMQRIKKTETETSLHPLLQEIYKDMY
Description: Displacement of [3H]2-(4-(3-(4-acetyl-3-hydroxy-2 propyl-phenoxy)propoxy)phenoxy)acetic acid from human PPARdelta after 30 mins by SPA assay

| SMILES | IC50 [nM] |
| --- | --- |
| O=C(O)COc1ccc(SCc2c(F)cccc2OCc2ccc(C(F)(F)F)cc2)c2c1CCC2 | 286 |
| Cc1cc(SCc2ccc(OCc3ccc(C(F)(F)F)cc3)cc2)c(Cl)cc1OCC(=O)O | 20 |
| O=C(O)COc1ccc(SCc2cc(F)ccc2OCc2ccc(C(F)(F)F)cc2)c2c1CCC2 | 1.7 |
| O=C(O)COc1ccc(SCc2ccc(OCc3ccc(F)cc3C(F)(F)F)cc2)c2c1CCC2 | 356 |
| CC(C)(C)c1ccc(COc2ccc(CSc3ccc(OCC(=O)O)c4c3CCC4)cc2)cc1 | 148 |
| O=C(O)COc1ccc(SCc2ccccc2OCc2ccc(C(F)(F)F)cc2)c2c1CCC2 | 10.4 |
| O=C(O)COc1ccc(SCc2ccc(OCc3ccc(F)cc3)cc2)c2c1CCC2 | 191 |
| Cc1cc(SCc2ccc(OCc3ccc(C(F)(F)F)cc3)cc2)c2c(c1OCC(=O)O)CCC2 | 586 |

More lines, now with the values ahead:

| IC50 [nM] | SMILES |
| --- | --- |
| 19 | Cc1cc(SCc2ccc(OCc3ccc(C(F)(F)F)cc3)cc2)ccc1OCC(=O)O |
| 313 | Cc1cc(SCc2ccc(OCc3ccc(C(F)(F)F)cc3)cc2)c2c(c1OCC(=O)O)CCCO2 |
| 89 | O=C(O)COc1ccc(SCc2ccc(OCc3ccc(Cl)cc3)cc2)c2c1CCC2 |
| 111 | O=C(O)COc1ccc(SCc2cccc(F)c2OCc2ccc(C(F)(F)F)cc2)c2c1CCC2 |
| 69 | O=C(O)COc1ccc(SCc2ccc(OCc3cc(Cl)ccc3Cl)cc2)c2c1CCC2 |
| 125 | O=C(O)COc1ccc(SCc2ccc(OCc3ccccc3)cc2)c2c1CCC2 |
| 62 | O=C(O)COc1ccc(SCc2ccc(F)cc2OCc2ccc(C(F)(F)F)cc2)c2c1CCC2 |
| 120 | COc1ccc(COc2ccc(CSc3ccc(OCC(=O)O)c4c3CCC4)cc2)cc1 |
| 76 | O=C(O)COc1ccc(SCc2ccc(OCc3ccc(OC(F)(F)F)cc3)cc2)c2c1CCC2 |

Molecular target: T2, Peroxisome proliferator-activated receptor delta
Type: functional, cell-based, HepG2
Remark: another data set of the same source
Description: Agonist activity at human PPARdelta expressed in HepG2 cells after 16 hrs by luciferase reporter gene assay

| SMILES | EC50 [nM] | IC50 [nM] |
| --- | --- | --- |
| O=C(O)COc1ccc(SCc2c(F)cccc2OCc2ccc(C(F)(F)F)cc2)c2c1CCC2 | 2610 | – |
| Cc1cc(SCc2ccc(OCc3ccc(C(F)(F)F)cc3)cc2)c(Cl)cc1OCC(=O)O | 374 | – |
| O=C(O)COc1ccc(SCc2cc(F)ccc2OCc2ccc(C(F)(F)F)cc2)c2c1CCC2 | 70 | – |
| O=C(O)COc1ccc(SCc2ccc(OCc3ccc(F)cc3C(F)(F)F)cc2)c2c1CCC2 | 1720 | – |
| CC(C)(C)c1ccc(COc2ccc(CSc3ccc(OCC(=O)O)c4c3CCC4)cc2)cc1 | 267 | – |
| O=C(O)COc1ccc(SCc2ccccc2OCc2ccc(C(F)(F)F)cc2)c2c1CCC2 | 230 | – |
| O=C(O)COc1ccc(SCc2ccc(OCc3ccc(F)cc3)cc2)c2c1CCC2 | 13600 | – |
| Cc1cc(SCc2ccc(OCc3ccc(C(F)(F)F)cc3)cc2)c2c(c1OCC(=O)O)CCC2 | – | > 10000 |

More lines, now with the values ahead:

| EC50 [nM] | IC50 [nM] | SMILES |
| --- | --- | --- |
| 252 | – | Cc1cc(SCc2ccc(OCc3ccc(C(F)(F)F)cc3)cc2)ccc1OCC(=O)O |
| – | > 10000 | Cc1cc(SCc2ccc(OCc3ccc(C(F)(F)F)cc3)cc2)c2c(c1OCC(=O)O)CCCO2 |
| 933 | – | O=C(O)COc1ccc(SCc2ccc(OCc3ccc(Cl)cc3)cc2)c2c1CCC2 |
| 585 | – | O=C(O)COc1ccc(SCc2ccc(OCc3cc(Cl)ccc3Cl)cc2)c2c1CCC2 |
| 2210 | – | O=C(O)COc1ccc(SCc2ccc(OCc3ccccc3)cc2)c2c1CCC2 |
| 1970 | – | COc1ccc(COc2ccc(CSc3ccc(OCC(=O)O)c4c3CCC4)cc2)cc1 |
| 530 | – | O=C(O)COc1ccc(SCc2ccc(OCc3ccc(OC(F)(F)F)cc3)cc2)c2c1CCC2 |
